This test deals with M17_3TAU(P301L) cells. Briefly: Retinoic acid-induced cytotoxicity (LDH) in TAU-P301L expressing M17_3TAU(P301L) neuroblastoma cells. The test is classed as cell-based. The note with it: Homo sapiens, Neuroblastoma cell, 168 h; toxicity inhibition (LDH) in M17_3TAU(P301L) cells challenged with retinoic acid, 7 days. From the text:
A TAU expression plasmid was constructed by sub-cloning the cDNA encoding for human TAU-P301L protein, wherein proline at position 301 was substituted by a leucine residue, into mammalian expression vector pcDNA3.1 resulting in the plasmid pcDNA3.1-TAUP301L. Plasmid pcDNA3.1-TAU P301L was transfected into human neuroblastoma cells (BE-M17; ATCC No. CRL-2267™) using lipofectamine reagent and subsequently, independent clonal cell lines with the plasmids stably integrated into the genome were selected by antibiotic resistance selection (Geneticin (G418)), resulting in cell line M17_3TAUP301L. Expression of the TAUP301L gene in the M17_3TAUP301L cells was confirmed by Western blot analysis.
M17_3TAU(P301L) cells were treated chronically with retinoic acid (RA) in low serum conditions to induce Alzheimer's disease-like intracellular signaling deregulation leading to increased TAU levels and subsequent cell death. Cytotoxicity of cells was measured by quantification of lactate dehydrogenase (LDH) levels. In dead cells LDH leaked out of the cells into the medium due to a loss of plasma-membrane integrity.
3 days preceding the experiment, a pre-culture of M17_3TAU(P301L) cells was prepared, starting from a stock culture, at a density of 50.000-100.000 cells/cm^2 in culture medium (Optimem Reduced Serum with phenol red (Invitrogen, Cat. 31985-047)) supplemented with 10% fetal calf serum (FCS), 1 mM sodium pyruvate, 1×non-essential amino acids (NEAA), 500 μg/ml G418 and 0.5×(ABAM). At the day of the experiment these precultures were diluted to ˜0.1·10^6 cells/ml in detection medium (Optimem Reduced Serum without phenol red (Gibco, Cat.11058-021) supplemented with 1% fetal calf serum (FCS), 1 mM sodium pyruvate, 1×non-essential amino acids (NEAA), 500 μg/ml G418 and 0.5×ABAM) and 60 μL of this suspension was dispensed per well into a 96-well microtiter plate. After 3 hours of incubation at 37° C./5% CO2 an equal volume of detection medium (without FCS) containing 3.75 μM RA was added and subsequently incubated for 7 days at 37° C./5% CO2. Then LDH activity was determined using the Promega Cytotox 96 Non-Radioactive cytotoxicity assay (Cat. G1780), according to the manufacturer's instructions. Cytotoxicity was defined as the ratio of LDH relative the total LDH in the cells and supernatant.
The assay described above using the M17_3TAU(P301L) cell line allowed to screen compounds for their ability to decrease cytotoxicity in RA-challenged cells. Compounds of the invention were tested for their ability to decrease toxicity at different concentrations, ranging from low non-effective concentrations to high potent concentrations. Afterwards, the dose-dependent inhibition curve was used to calculate their EC50. A compound was considered to be active in this test when it inhibited toxicity by more than 20% relative to untreated M17_3TAU(P301L) cells at a concentration of 10 μM or lower.

Structures are written as SMILES.

A word on the EC50: it is the midpoint of the concentration-response curve.

In the case of `Fc1ccc(C2(c3noc(N4CCN(CCc5ccc(Cl)cc5)CC4)n3)CC2)cc1` [Cmpd111, 5-(4-(4-Chlorophenethyl)piperazin-1-yl)-3-(1-(4-fluorophenyl)cyclopropyl)-1,2,4-oxadiazole], the half-maximal effective concentration (EC50) came to 237 nM.

`Cc1ccc(CN2CCN(c3nc(-c4ccccc4)no3)CC2)cc1` [Cmpd002, 5-(4-(4-Methylbenzyl)piperazin-1-yl)-3-phenyl-1,2,4-oxadiazole]: the response was half-maximal at 8 nM (EC50).

As to `c1ccc(-c2noc(N3CCN(CCN4CCOCC4)CC3)n2)cc1` [Cmpd005, 4-(2-(4-(3-Pphenyl-1,2,4-oxadiazol-5-yl)piperazin-1-yl)ethyl)morpholine], it took 41 nM to reach a half-maximal effect (EC50).

With `Fc1ccc(Cc2noc(N3CCN(CCc4ccc(Cl)cc4)CC3)n2)cc1F` [Cmpd102, 1-[2-(4-Chloro-phenyl)-ethyl]-4-[3-(3,4-difluoro-benzyl)-[1,2,4]oxadiazol-5-yl]-piperazine], the EC50 amounted to 17 nM.

Take `Cc1ccccc1CN1CCN(c2nc(C3(c4ccccc4)CC3)no2)CC1` [Cmpd123, 5-(4-(2-Methylbenzyl)piperazin-1-yl)-3-(1-phenylcyclopropyl)-1,2,4-oxadiazole]: the EC50 was determined as 849 nM.

Turning to `Cc1ccccc1CN1CCN(c2nc(-c3cccc(Cl)c3)no2)CC1` [Cmpd026, 3-(3-Chlorophenyl)-5-(4-(2-methylbenzyl)piperazin-1-yl)-1,2,4-oxadiazole], the midpoint of the response, the EC50, lay at 88 nM.

For the compound `COc1cccc(CCN2CCN(c3nc(Cc4cccc(F)c4)no3)CC2)c1` [Cmpd090, 1-[3-(3-Fluoro-benzyl)-[1,2,4]oxadiazol-5-yl]-4-[2-(3-methoxy-phenyl)-ethyl]-piperazine], the EC50 is 37 nM.

In the case of `COc1cccc(CCN2CCN(c3nc(C(F)(F)c4ccc(F)cc4)no3)CC2)c1` [Cmpd150, 3-(Difluoro(4-fluorophenyl)methyl)-5-(4-(3-methoxyphenethyl)piperazin-1-yl)-1,2,4-oxadiazole], a half-maximal effect (EC50) was put at 199 nM.

Turning to `Cc1ccccc1CN1CCN(c2nc(Cc3ccccc3)no2)CC1` [Cmpd041, 1-(3-Benzyl-[1,2,4]oxadiazol-5-yl)-4-(2-methylbenzyl)-piperazine], the EC50 came out at 55 nM.

Compound `COc1cc(CCN2CCN(c3nc(CCC(F)(F)F)no3)CC2)ccn1` [Cmpd175, 5-(4-(2-(2-Methoxypyridin-4-yl)ethyl)piperazin-1-yl)-3-(3,3,3-trifluoropropyl)-1,2,4-oxadiazole] displayed an EC50 of 105 nM.

For `Cc1cc(Cc2noc(N3CCN(CCc4ccc(Cl)cc4)CC3)n2)ccn1` [Cmpd170, 5-(4-(4-Chlorophenethyl)piperazin-1-yl)-3-((2-methylpyridin-4-yl)methyl)-1,2,4-oxadiazole], the EC50 was found to be 640 nM.

On to `Cc1ccccc1CN1CCN(c2nc(Cc3ccc(F)c(F)c3)no2)CC1` [Cmpd104, 1-[3-(3,4-Difluoro-benzyl)-[1,2,4]oxadiazol-5-yl]-4-(2-methyl-benzyl)-piperazine], for which it took 37 nM to reach a half-maximal effect (EC50).

`Cc1ccccc1CN1CCN(c2nc(-c3ccc(Cl)cc3)no2)CC1` [Cmpd022, 3-(4-Chlorophenyl)-5-(4-(2-methylbenzyl)piperazin-1-yl)-1,2,4-oxadiazole] yielded an EC50 of 35 nM.

Regarding `CCC(c1ccccc1)c1noc(N2CCN(Cc3ccc4c(c3)OCO4)CC2)n1` (stereo not drawn) [Cmpd047, 5-(4-(Benzo[d][1,3]dioxol-5-ylmethyl)piperazin-1-yl)-3-(1-phenylpropyl)-1,2,4-oxadiazole], the EC50 came out at 63 nM.

`Fc1ccc(-c2noc(N3CCN(Cc4ccccc4Cl)CC3)n2)cc1F` [Cmpd035, 5-(4-(2-Chlorobenzyl)piperazin-1-yl)-3-(3,4-difluorophenyl)-1,2,4-oxadiazole]: the EC50 was determined as 24 nM.

As for `COc1cccc(CCN2CCN(c3nc(-c4ccc(Cl)cc4)no3)CC2)c1` [Cmpd021, 3-(4-Chlorophenyl)-5-(4-(3-methoxyphenethyl)piperazin-1-yl)-1,2,4-oxadiazole], a half-maximal response (EC50) required 5 nM.

Compound `Cc1ccc(-c2noc(N3CCN(Cc4ccc5c(c4)OCO5)CC3)n2)cc1` [Cmpd007, 5-(4-(Benzo[d][1,3]dioxol-5-ylmethyl)piperazin-1-yl)-3-(p-tolyl)-1,2,4-oxadiazole] gave an EC50 of 352 nM.

Compound `CC(C)CCN1CCN(c2nc(Cc3ccc(Cl)cc3)no2)CC1` [Cmpd067, 3-(4-Chlorobenzyl)-5-(4-isopentylpiperazin-1-yl)-1,2,4-oxadiazole] registered an EC50 of 22 nM.

`Fc1ccccc1CN1CCN(c2nc(Cc3ccc(Cl)cc3)no2)CC1` [Cmpd061, 3-(4-Chlorobenzyl)-5-(4-(2-fluorobenzyl)piperazin-1-yl)-1,2,4-oxadiazole] registered an EC50 of 685 nM.

`Fc1cccc(-c2noc(N3CCN(Cc4ccccc4Cl)CC3)n2)c1` [Cmpd029, 5-(4-(2-Chlorobenzyl)piperazin-1-yl)-3-(3-fluorophenyl)-1,2,4-oxadiazole] returned an EC50 of 97 nM.

The compound `COc1cccc(CCN2CCN(c3nc(Cc4ccccc4)no3)CC2)c1` [Cmpd042, 1-(3-Benzyl-[1,2,4]oxadiazol-5-yl)-4-[2-(3-methoxy-phenyl)-ethyl]-piperazine] registered an EC50 of 3 nM.

`FC1(F)Oc2ccc(CN3CCN(c4nc(C5(c6ccccc6)CC5)no4)CC3)cc2O1` [Cmpd128, 5-(4-((2,2-Difluorobenzo[d][1,3]dioxol-5-yl)methyl)piperazin-1-yl)-3-(1-phenylcyclopropyl)-1,2,4-oxadiazole] gave an EC50 of 617 nM.

The compound `COc1cccc(CCN2CCN(c3nc(C4(c5ccccc5)CC4)no3)CC2)c1` [Cmpd125, 5-(4-(3-Methoxyphenethyl)piperazin-1-yl)-3-(1-phenylcyclopropyl)-1,2,4-oxadiazole] returned an EC50 of 103 nM.

In turn, `Cc1ccccc1CN1CCN(c2nc(Cc3ccc(Cl)cc3)no2)CC1` [Cmpd058, 1-[3-(4-Chloro-benzyl)-[1,2,4]oxadiazol-5-yl]-4-(2-methyl-benzyl)-piperazine] came in with an EC50 of 177 nM.

Regarding `Clc1ccc(Cc2noc(N3CCN(Cc4ccc5c(c4)OCO5)CC3)n2)cc1` [Cmpd055, 1-Benzo[1,3]dioxol-5-ylmethyl-4-[3-(4-chloro-benzyl)-[1,2,4]oxadiazol-5-yl]-piperazine], the concentration giving a half-maximal response (EC50) turned out to be 452 nM.

Compound `FC(F)(F)Cc1noc(N2CCN(CCc3ccc(Cl)cc3)CC2)n1` [Cmpd164, 5-(4-(4-Chlorophenethyl)piperazin-1-yl)-3-(2,2,2-trifluoroethyl)-1,2,4-oxadiazole] returned an EC50 of 306 nM.

`COc1cc(CCN2CCN(c3nc(C4C[C@@H]5CC[C@H]4C5)no3)CC2)ccn1` (stereo partly drawn) [Cmpd187, 3-((1S,4R)-bicyclo[2.2.1]heptan-2-yl)-5-(4-(2-(2-methoxypyridin-4-yl)ethyl)piperazin-1-yl)-1,2,4-oxadiazole] gave an EC50 of 47 nM.

As to `COc1cc(CCN2CCN(c3nc(-c4cccc(Cl)c4)no3)CC2)ccn1` [Cmpd025, 3-(3-Chlorophenyl)-5-(4-(2-(2-methoxypyridin-4-yl)ethyl)piperazin-1-yl)-1,2,4-oxadiazole], the EC50 came out at 14 nM.

As to `N#CCCCN1CCN(c2nc(Cc3ccc(Cl)cc3)no2)CC1` [Cmpd064, 4-{4-[3-(4-Chloro-benzyl)-[1,2,4]oxadiazol-5-yl]-piperazin-1-yl}-butyronitrile], the response was half-maximal at 54 nM (EC50).

As for `Clc1ccc(CCN2CCN(c3nc(Cc4ccc(Cl)cc4)no3)CC2)cc1` [Cmpd059, 1-[3-(4-Chloro-benzyl)-[1,2,4]oxadiazol-5-yl]-4-[2-(4-chloro-phenyl)-ethyl]-piperazine], the midpoint of the response, the EC50, lay at 220 nM.

For the compound `CC(C)CCN1CCN(c2nc(-c3cccc(F)c3)no2)CC1` [Cmpd034, 3-(3-Fluorophenyl)-5-(4-isopentylpiperazin-1-yl)-1,2,4-oxadiazole], it took 2 nM to reach a half-maximal effect (EC50).

For the compound `FC(F)(F)c1ccc(-c2noc(N3CCN(CCc4ccc(Cl)cc4)CC3)n2)cc1` [Cmpd183, 1-[2-(4-Chloro-phenyl)-ethyl]-4-[3-(4-trifluoromethyl-phenyl)-[1,2,4]oxadiazol-5-yl]-piperazine], a half-maximal response (EC50) required 57 nM.

With `CCC(c1ccccc1)c1noc(N2CCN(CCc3cccc(OC)c3)CC2)n1` (stereo not drawn) [Cmpd049, 5-(4-(3-Methoxyphenethyl)piperazin-1-yl)-3-(1-phenylpropyl)-1,2,4-oxadiazole], the response was half-maximal at 10 nM (EC50).

The values are drawn from patent US10562869B2, “Oxadiazole compounds” (REMYND NV, priority 2014, dated 2020).
